{"source": "patent US8524198B2", "about": "“Xylitol dental maintenance system” (priority 2003, dated 2013)", "origin": "cited, not measured here", "key": {"[1]": {"conditions": "976 children aged 6-12 years, 2 years; for 2-year DMFS increment: partial substitution of sucrose by xylitol (X group) vs systemic fluoride (F group)"}, "[2]": {"conditions": "3-year field study; partial substitution of sucrose by xylitol (X group)"}, "oral microorganisms": {"system": "oral microorganisms", "conditions": "pure cultures of oral microorganisms in vitro"}, "dental plaque": {"system": "dental plaque", "conditions": "dental plaque in vivo"}}, "data": [{"smiles": "F", "note": "[fluoride]", "values": [{"measurement": "ratio (RS) between caries incidence and the tooth surface population at risk", "setting": "[1]", "value": 5.5}, {"measurement": "2-year DMFS increment", "setting": "[1]", "value": 4.8}]}, {"smiles": "OC[C@@H](O)[C@H](O)[C@@H](O)CO", "note": "[xylitol]", "values": [{"measurement": "ratio (RS) between caries incidence and the tooth surface population at risk", "setting": "[1]", "value": 4.5}, {"measurement": "2-year DMFS increment", "setting": "[1]", "value": 3.8}, {"measurement": "oral hygiene conditions, final vs base-line", "setting": "[2]", "value": "definite improvement"}, {"measurement": "metabolized into acids", "setting": "oral microorganisms", "value": "not metabolized into acids"}, {"measurement": "metabolized into acids", "setting": "dental plaque", "value": "not metabolized into acids"}]}]}
